Reference: US4758558A, “N-(substituted)-[7-(2-cyanoacetamido)cephalosporanic]amide derivatives having antibiotic utility” (priority 1982, dated 1988)

Columns and labels:
a species of Bacteroides = assay: Effect on intestinal bacteria: number of a sp. of Bacteroides in feces; type: in vivo, ICR mice; settings: mouse, in vivo, po, 500 mg/kg/day
In short: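 Five female ICR mice (6 weeks old) per group received compound orally at 500 mg/kg/day for 2 days. Feces taken before and one day after dosing were diluted 100-fold in anaerobic phosphate buffer, and 0.1 ml was plated on NBGT agar. Bacteroides colonies were counted after 5 days at 37 °C.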

Lactobacillus bifidus = assay: Effect on intestinal bacteria: number of Lactobacillus bifidus in feces; type: in vivo, ICR mice; settings: mouse, in vivo, po, 500 mg/kg/day
In short: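 Female ICR mice aged 6 weeks (five per group) were dosed orally with compound at 500 mg/kg/day for 2 days. Feces taken before and one day after dosing were diluted 100-fold in anaerobic phosphate buffer and plated. Bacterial counts determined after incubation, BS agar at 37 °C for 5 days.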

[1] = tested on: Escherichia coli IFO 12734; assay: Antibacterial activity in vitro (MIC) against Escherichia coli; type: cell-based; settings: IFO12734, Mueller-Hinton agar, 18 to 24 hours, 37° C., read-out: MIC (minimum growth inhibiting concentration) against Escherichia coli
In short: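 Agar-dilution MIC by the Japan Society of Chemotherapy standard method: compound dilutions mixed 1:9 with Mueller-Hinton agar, strains streaked about 2 cm with a loop. Plates incubated 18 to 24 hours at 37° C. MIC is the lowest concentration giving complete growth inhibition.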

Escherichia coli = assay: Effect on intestinal bacteria: number of Escherichia coli in feces; type: in vivo, ICR mice; settings: after oral administration for 2 days, 500 mg/kg/day, female ICR mice; before: 6.4
[2] = tested on: Escherichia coli IFO 12734; assay: Treatment of experimental infectious disease in mouse due to Escherichia coli; type: in vivo, ddY SPE mice; settings: oral, two times just after and 4 hours after inoculation; 1.4×10^8 cells i.p.
Text: (§1) (e) Effectiveness in treating experimental infectious disease due to bacteria:
(§2) (Refer to Example 22 for the details of the test.) As the result, while all the twenty mice artificially infected with each of the two bacterial species and not-treated with any of the present compound died on the second day of inoculation, more than 40% of the twenty mice artificially infected with each of the two bacterial species and administered with each of the three present compounds were alive even after 7 days of inoculation.
(§3) Effectiveness of the present compound in treatment of an experimental infectious disease in mouse
(1) Disease due to infection of Escherichia coli
(§4) Each mouse of the two groups (20 animals/group) of ddY SPE mice was inoculated with 1.4×10^8 cells of Escherichia coli IFO 12734 intraperitoneally, and then, each mouse of the one of the two groups was administered orally with one of the present compounds, namely the compound produced in Example 5, 10 or 13, two times just after and 4 hours after the inoculation, while the 20 mice of the other group were not administered.

Pseudomonas aeruginosa = assay: Effect on intestinal bacteria: number of Pseudomonas aeruginosa in feces; type: in vivo, ICR mice; settings: mouse, in vivo, po, 500 mg/kg/day
In short: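 Female ICR mice aged 6 weeks, five per group, were dosed orally for 2 days at 500 mg/kg/day. Feces were taken before dosing and one day after. Specimens were diluted 100-fold in anaerobic phosphate buffer, ground, plated on selective media (NAC agar, 37° C, one day), and colonies were counted.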

[3] = tested on: Staphylococcus aureus IAM 1011; assay: Treatment of experimental infectious disease in mouse due to Staphylococcus aureus; type: in vivo, ddY SPE mice; settings: oral, two times just after and 4 hours after inoculation; 2.3×10^8 cells i.p.
Text: as §1, §2, §3
(2) Disease due to infection of Staphylococcus aureus
as §4, with “2.3×10^8” for “1.4×10^8”, “Staphylococcus aureus IAM 1011” for “Escherichia coli IFO 12734”

[4] = tested on: a species of Streptococcus; assay: Effect on intestinal bacteria: number of a sp. of Streptococcus in feces; type: in vivo, ICR mice; settings: mouse, in vivo, po, 500 mg/kg/day
In short: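 Female ICR mice aged 6 weeks (five per group) received compound orally at 500 mg/kg/day for 2 days. Feces collected before dosing and one day after were diluted 100-fold in anaerobic phosphate buffer and plated on TATAC agar. Streptococcus colonies were counted after one day at 37 °C.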

[5] = tested on: Staphylococcus aureus IAM 1011; assay: Antibacterial activity in vitro (MIC) against Staphylococcus aureus; type: cell-based; settings: IAM1011, Mueller-Hinton agar, 18 to 24 hours, 37° C., read-out: MIC (minimum growth inhibiting concentration) against Staphylococcus aureus
In short: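 Agar dilution MIC per Japan Society of Chemotherapy standard: compound dilutions mixed with 9 parts Mueller-Hinton medium to make plates, bacteria streaked ~2 cm with platinum loop. Incubated 18 to 24 hours at 37° C; MIC = lowest concentration completely inhibiting growth.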

[6] = tested on: a species of Lactobacillus; assay: Effect on intestinal bacteria: number of a sp. of Lactobacillus in feces; type: in vivo, ICR mice; settings: mouse, in vivo, po, 500 mg/kg/day
In short: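 Female ICR mice (6 weeks, five per group) received compound orally at 500 mg/kg/day for 2 days. Feces taken before and one day after dosing were diluted 100-fold in anaerobic phosphate buffer and plated on LBS agar. Lactobacillus colonies were counted after 5 days at 37° C.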

COC(=O)c1ccc(NC(=O)C2=C(CSc3nnc(C)s3)CSC3C(NC(=O)Cn4cnnn4)C(=O)N23)cc1 (stereo not shown) [Example 13, N-(4-carbomethoxyphenyl)-{7-(1-1H-tetrazolylacetamido)-3-[2-(5-methyl-1,3,4-thiadiazolyl)thiomethyl]-3-cephem-4-carboxylic}amide]
Number of a sp. of Bacterioides after the administration (a species of Bacteroides): 8.7 Log10 (number of bacteria/g feces) | Number of Lactobacillus bifidus after the administration (Lactobacillus bifidus): 8.4 Log10 (number of bacteria/g feces) | MIC [1]: ≥ 100 µg/mL | Number of Escherichia coli after the administration (Escherichia coli): 6.4 Log10 (number of bacteria/g feces) | mice alive on the 7th day of inoculation (Escherichia coli infection) [2]: more than 80% | Number of Pseudomonas aeruginosa after the administration (Pseudomonas aeruginosa): < 3.0 Log10 (number of bacteria/g feces) | mice alive on the 7th day of inoculation (Staphylococcus aureus infection) [3]: more than 60% | Number of a sp. of Streptococcus after the administration [4]: 6.6 Log10 (number of bacteria/g feces) | MIC [5]: ≥ 12.5 µg/mL | Number of a sp. of Lactobacillus after the administration [6]: 9.0 Log10 (number of bacteria/g feces)
